Values quoted from earlier work as cited in PMC3639963, “A New Class of Small Molecule Inhibitor of BMP Signaling” (PLoS ONE, 2013).

Tested on: ALK2
Parameters: method as in PMID 19914855
Settings: read-out: reported in vitro IC50 (enzymatic assays); cited from earlier work

In the case of `c1cc(-c2cnn3cc(-c4ccc(OCCN5CCCCC5)cc4)cnc23)ccn1` [Dorsomorphin], the IC50 is listed as 50 nM.
